Source: patent US20240182456A1, “2-((4-((S)-2-(4-CHLORO-2-FLUOROPHENYL)-2-METHYLBENZO[D][1,3]DIOXOL-4-YL)PIPERIDIN-1-YL)METHYL)-1-(((S)-OXETAN-2-YL)METHYL)-1H-IMIDAZOLE DERIVATIVES AS ACTIVATORS OF THE GLP1 RECEPTOR FOR THE TREATMENT OF OBESITY” (Novartis AG, priority 2021, published 2024)
Each block holds one compound with its values, some of them ahead of it.

Columns and labels:
[1] = target: human GLP1R (hGLP1R) (Homo sapiens, UniProt P43220); test: Human GLP1R cAMP agonist assay (GloSensor); type: cell-based; details: HEK293-SNAP-hGLP1R-GloSensor cells; for Emax: cAMP, normalized to GLP1(7-36) maximum response, read-out: Emax mean; for EC50: intracellular cAMP, mean n=3 where SEM is given
Sequence of human GLP1R (hGLP1R) (P43220 24-463): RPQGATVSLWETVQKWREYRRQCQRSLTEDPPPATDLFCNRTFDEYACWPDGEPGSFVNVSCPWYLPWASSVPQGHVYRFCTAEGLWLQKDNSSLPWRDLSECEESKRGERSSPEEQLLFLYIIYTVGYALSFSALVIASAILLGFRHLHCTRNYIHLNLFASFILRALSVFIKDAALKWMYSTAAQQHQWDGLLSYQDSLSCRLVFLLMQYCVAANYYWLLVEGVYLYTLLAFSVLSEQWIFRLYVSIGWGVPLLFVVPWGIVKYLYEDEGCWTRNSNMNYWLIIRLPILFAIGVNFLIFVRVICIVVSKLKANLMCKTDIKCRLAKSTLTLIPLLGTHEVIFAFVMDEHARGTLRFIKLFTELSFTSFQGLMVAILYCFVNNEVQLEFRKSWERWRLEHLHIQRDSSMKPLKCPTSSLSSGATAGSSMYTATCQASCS
Experimental: Compounds 1 to 31 were tested in the following cellular assays that measure the intracellular cAMP concentration, beta-arrestin recruitment and receptor internalization. The cAMP is generated by the activation of GLP1R. The cAMP data obtained is shown in Table 1 (where S.E.M. is included, mean n=3 independent experiments+/−S.E.M). Beta-arrestin is recruited upon activation of GLP1R and the data obtained are shown in Table 2 (mean n=2 independent experiments, +/−S.D). The extent to which the GLP1R is internalized into the cell and away from the plasma membrane following activation is also shown in Table 2 (mean n=2 independent experiments, +/−S.D). EC50 for each assay is defined as the concentration of the compound that leads to half of the maximum response (after baseline correction). Emax is defined as the maximum response observed for the test compound, normalized to the maximum response observed for the endogenous ligand (GLP1(7-36)) to GLP1R.
Human GLP1R cAMP Agonist Assay
The agonist activity of compounds was determined using the GloSensor™ cAMP Assay (Promega Corp.), which measures changes in the intracellular concentration of cAMP after ligand activation of GPCRs. The assay uses a biosensor encoded by pGloSensor™-22F cAMP plasmid (Promega, cat #E2301) with cAMP binding domains fused to a mutant form of Photinus pyralis luciferase. Binding to cAMP causes conformational changes that promote large increases in light output, which can be measured by a luminescence detector. HEK293-SNAP-hGLP1R-GloSensor cells stably overexpressing the human GLP1 receptor (hGLP1R) and pGloSensor™-22F were seeded in white 384-well poly-D-Lysine coated plates (Greiner Bio One, cat #781945) in CO2-independent media (Gibco cat #18045-088 with 1.0% FBS, 2 mM L-glutamine, penicillin and streptomycin) and incubated overnight at 37° C., 5% CO2 with humidity. The assay was started the following morning by adding an equal volume of CO2-independent media containing 4% v/v dilution of the GloSensor substrate (Promega, cat #E1291) to all wells. The cell plate was incubated at rt for 2 h in the dark. The Biomek 7 (Beckman Coulter) instrument was used for the liquid handling steps. To generate duplicate dose response curves, 3-fold serially diluted compounds were added in to the cell assay plate to a final volume of 60 μL with final concentrations ranging from 30 μM through 0.06 μM in CO2-independent media containing 0.1% BSA, 0.5 mM IBMX and 0.4% DMSO. In the same plate and assay buffer as the tested compounds, were EC100 control wells containing GLP1 (7-36) peptide (Bachem, cat #H-6795) at a final concentration of 2 nM and also EC0 control wells containing no peptide. This plate was incubated at rt in the dark for 12 min after adding the compounds to the cells. Luminescence was then measured with an Envision 2104 Multilabel reader with “TRF Light Unit, 337 nm” (PerkinElmer) using the Ultra-Sensitive protocol setting “384-well US luminescence detector” with the 384-well luminescence aperture, 0.1 seconds per well. cAMP activity was calculated as percent of the GLP1 (7-36) EC100 control wells: [(sample signal−mean EC0 signal)/(mean EC100 of GLP1 (7-36) signal−mean EC0 signal)}*100. Curve fitting for EC50 determinations was performed in the Helios module of the software package DAVID. The 4-parameter logistic model, Hill slope was used: y=Ainf+(A0−Ainf)/(1+(x/AC50)^Hill Slope) where y is the functional response; x is the compound concentration; A0 is the minimum value (at 0 dose); Ainf is the maximum value (at infinite dose); AC50 corresponds to the point of inflection (i.e. the point on the sigmoid shaped curve halfway between A0 and Ainf). The EC50 value was represented by the AC50 value calculated from Helios in μM. Emax is the maximal activity detected within the concentration range, derived from the fitted curve. […]

[2] = Pharmacokinetics in C57BL/6 mice (i.v. and oral); details: for BAV: male C57BL/6 mice, 3 mg/kg oral dose vs 1 mg/kg i.v.; for AUC(0-inf) / Vd / clearance / half-life / Cmax / Tmax: male, C57BL/6, mouse
Experimental: Blood concentration versus time profiles were obtained from 2 groups of 3 male mice. The compound was administered intravenously (i.v.) by bolus injection (5 mL/kg) at a dose of 1 mg/kg in N-methyl-2-pyrrolidone (10%) and 4% bovine serum albumins (BSA) in phosphate-buffered saline (PBS) (90%) or orally administered at a dose of 3 mg/kg (10 mL/kg) as a homogenous suspension of Water (99.4%), Tween 80 (0.1%) and methylcellulose (0.5%). Following compound administration, blood (10 μL/time point) were collected by puncture of the tail vein into ethylenediaminetetraacetic (EDTA)-coated tubes, at 0.083 (i.v. only), 0.25, 0.5, 1, 3, 7, & 24 hours post dose.
Bioanalysis: An aliquot of 10 μL of blood sample and matrix calibration standards were added to a 96-well plate. The samples were extracted using a protein precipitation procedure with addition of 80 μL acetonitrile containing internal standard. The samples were vortexed and centrifuged at 3000 rpm for 5 minutes. A 70 μL aliquot of supernatant was transferred to a clean 96-well plate and a 70 μL of water was added to each well and vortexed. Samples were analyzed and quantified by LC-MS/MS using the conditions outlined below.
• Mass Spectrometer: AP16500+ • Liquid Chromatograph: Agilent 1290 for Compound 3; Shimadzu LC30 AD for Compound 5 • Autosampler (ALS): Agilent 1290 for Compound 3; Shimadzu SIL30AC for Compound 5
• LC Column Acquity BEH C18, 50×2.1 mm, 1.7 μm • Solvent A: • 5:95:0.1 (v:v:v) Acetonitrile:Water:Formic Acid for Compound 3 • 100:0.1 (v:v) Water:Formic acid for Compound 5 • Solvent B: • 50:50:0.1 (v:v:v) Acetonitrile:Methanol:Formic Acid for Compound 3 • 100:0.1 (v:v) Acetonitrile:Formic acid for Compound 5 • Injection Volume [μL]: 1 for Compound 5; 20 for Compound 3 • Column Oven Temp. [° C.]: 50 Compound 3; 40 for Compound 5 • ALS Temp. [° C.]: 5
• Ion Source: TIS • Polarity: Positive • Temperature: 550 • Gas 1: 55 • Gas 2: 55 • Curtain Gas: 20 • Ion Spray Voltage [V]: 5500 for Compound 5; 4500 for Compound 3 • CAD Gas: 9

Structure (SMILES): C[C@]1(c2ccc(Cl)cc2F)Oc2cccc(C3CCN(Cc4nc(C(F)(F)F)c(/C=C/C(=O)O)n4C[C@@H]4CCO4)CC3)c2O1 [Compound 8]
BAV [2]: 60.9 ± 5.26% | AUC(0-inf) ([2]; in vivo, iv, 1 mg/kg): 3.75 ± 0.149 µM·h | Vd ([2]; in vivo, iv, 1 mg/kg): 1.65 ± 0.025 L/kg | clearance ([2]; in vivo, iv, 1 mg/kg): 7 ± 0.283 mL/min/kg | half-life ([2]; in vivo, iv, 1 mg/kg): 3.02 ± 0.168 h | AUC(0-inf) ([2]; in vivo, po, 3 mg/kg): 6.86 ± 0.591 µM·h | Cmax ([2]; in vivo, po, 3 mg/kg): 768 ± 112 nM | Tmax ([2]; in vivo, po, 3 mg/kg): 1 h | half-life ([2]; in vivo, po, 3 mg/kg): 2.7 ± 0.202 h

Structure (SMILES): C[C@]1(c2ccc(Cl)cc2F)Oc2cccc(C3CCN(Cc4nc5ccc(C(=O)O)cc5n4C[C@@H]4CCO4)CC3)c2O1 [compound 1, 2-((4-((S)-2-(4-chloro-2-fluorophenyl)-2-methylbenzo[d][1,3]dioxol-4-yl)piperidin-1-yl)methyl)-1-(((S)-oxetan-2-yl)methyl)-1H-benzo[d]imidazole-6-carboxylic acid, reference compound]
BAV [2]: 50.7% | AUC(0-inf) ([2]; in vivo, iv, 1 mg/kg): 1.19 ± 0.205 µM·h | Vd ([2]; in vivo, iv, 1 mg/kg): 2.13 ± 0.434 L/kg | clearance ([2]; in vivo, iv, 1 mg/kg): 24.1 ± 4.52 mL/min/kg | half-life ([2]; in vivo, iv, 1 mg/kg): 1.25 ± 0.02 h | AUC(0-inf) ([2]; in vivo, po, 3 mg/kg): 1.98 µM·h | Cmax ([2]; in vivo, po, 3 mg/kg): 430 ± 53.4 nM | Tmax ([2]; in vivo, po, 3 mg/kg): 1 h | half-life ([2]; in vivo, po, 3 mg/kg): 3.19 h

Structure (SMILES): Cc1nc(CN2CCC(c3cccc4c3O[C@@](C)(c3ccc(Cl)cc3F)O4)CC2)n(C[C@@H]2CCO2)c1/C=C/C(=O)O [Compound 5]
AUC(0-inf) ([2]; whole blood, iv, 1 mg/kg): 5.02 ± 0.629 µM·h | Vd ([2]; whole blood, iv, 1 mg/kg): 0.604 ± 0.02 L/kg | clearance ([2]; whole blood, iv, 1 mg/kg): 5.76 ± 0.711 mL/min/kg | half-life ([2]; whole blood, iv, 1 mg/kg): 1.42 ± 0.121 h | AUC(0-inf) ([2]; whole blood, po, 3 mg/kg): 7.91 ± 0.764 µM·h | Cmax ([2]; whole blood, po, 3 mg/kg): 1060 ± 450 nM | Tmax ([2]; whole blood, po, 3 mg/kg): 1 h | half-life ([2]; whole blood, po, 3 mg/kg): 2.82 ± 0.74 h

Now from value to compound:

Emax [1]: 110% | EC50 [1]: 1.08 nM
Structure (SMILES): Cc1nc(CN2CCC(c3cccc4c3O[C@@](C)(c3ccc(Cl)cc3F)O4)CC2)n(C[C@@H]2CCO2)c1C(O)CC(=O)O (mixture of isomers) [Compound C-28, 3-(2-((4-((S)-2-(4-chloro-2-fluorophenyl)-2-methylbenzo[d][1,3]dioxol-4-yl)piperidin-1-yl)methyl)-4-methyl-1-(((S)-oxetan-2-yl)methyl)-1H-imidazol-5-yl)-3-hydroxypropanoic acid]

Emax [1]: 109% | EC50 [1]: 8.28 nM
Structure (SMILES): Cc1c(C(=O)O)nc(CN2CCC(c3cccc4c3O[C@@](C)(c3ccc(Cl)cc3F)O4)CC2)n1C[C@@H]1CCO1 [Compound C-4, 2-((4-((S)-2-(4-chloro-2-fluorophenyl)-2-methylbenzo[d][1,3]dioxol-4-yl)piperidin-1-yl)methyl)-5-methyl-1-(((S)-oxetan-2-yl)methyl)-1H-imidazole-4-carboxylic acid]

Emax [1]: 107% | EC50 [1]: 1.2 nM
Structure (SMILES): Cc1nc(CN2CCC(c3cccc4c3O[C@@](C)(c3ccc(Cl)cc3F)O4)CC2)n(C[C@@H]2CCO2)c1C12CC(C(=O)O)(C1)C2 [Compound C-23a, 3-(2-((4-((S)-2-(4-chloro-2-fluorophenyl)-2-methylbenzo[d][1,3]dioxol-4-yl)piperidin-1-yl)methyl)-4-methyl-1-(((S)-oxetan-2-yl)methyl)-1H-imidazol-5-yl)bicyclo[1.1.1]pentane-1-carboxylic acid]

Emax [1]: 104% | EC50 [1]: 0.0473 nM
Structure (SMILES): C[C@]1(c2ccc(Cl)cc2F)Oc2cccc(C3CCN(Cc4nc(-c5ccc(F)cc5)c(C#CC(=O)O)n4C[C@@H]4CCO4)CC3)c2O1 [Compound C-29, 3-(2-((4-((S)-2-(4-chloro-2-fluorophenyl)-2-methylbenzo[d][1,3]dioxol-4-yl)piperidin-1-yl)methyl)-4-(4-fluorophenyl)-1-(((S)-oxetan-2-yl)methyl)-1H-imidazol-5-yl)propiolic acid]
